Measurements published in US9242959B2, “(Aza)benzhydryl ether derivatives, their process of preparation and their use as H4-receptor ligands for therapeutical applications” (BIOPROJET, priority 2012, dated 2016).

How the values were obtained:
human H4 receptor [1] = biological target: T1, human H4 receptor (Homo sapiens, UniProt Q9H3N8); assay: [3H]Histamine binding assay on membranes of CHO cells stably expressing human H4 receptor
T1 construct: expressed in transfected cells
Method: CHO cells stably expressing human H4 receptor were grown until sub-confluence and centrifuged at 300 g 15 minutes at 4° C. Pellets were resuspended in buffer I Tris-HCl 50 mM, MgCl2 10 mM, NaCl 140 mM, pH=7.4 supplemented by a 1/50 dilution of a mix of protease inhibitors. The obtained suspension is stirred gently and submitted to a […] exerted through a syringe. The cell lysate is then centrifuged at 300 g 15 minutes at 4° C. in order to eliminate nucleus and cell scraps. The obtained supernatant was then centrifuged at 48000 g for 30 minutes at 4° C. The final pellet is resuspended in buffer I with a potter homogenizer. Aliquots were frozen in liquid nitrogen and stored until use at −80° C. Protein content is measured by the Bradford method.
Defreezed membranes were diluted at a final concentration of 20 μg/180 μL/well in a binding buffer containing 50 mM Tris/HCl, 0.5 mM EDTA, pH=7.4 and distributed in 96 well polystyrene microplate. [^3H] […] Non specific binding was estimated in the presence of 10 μM BP1.2404 (JNJ 7777120). The reaction was terminated by filtration through GF/B filters pre-soaked 2 hours at 4° C. in 1% polyethyleneimine. Filters were rinsed 3 times with 250 μl of ice cold incubation binding buffer.
The filter-bound radioactivity was measured in a liquid scintillation counter Microbeta TRILUX® with 50 μl of scintillation fluid.
The hH4 binding investigated by use of [^3H]

human H4 receptor [2] = biological target: T1, human H4 receptor; assay: GTPγ[35S] binding assay on membranes of SH-SY5Y cells stably expressing human H4 receptor; assay type: biochemical
Method: SH-SY5Y cells stably expressing human H4 receptor are grown until sub-confluence and centrifuged at 300 g 15 minutes at 4° C. Pellets are resuspended in buffer I Tris-HCl 50 mM, MgCl2 10 mM, NaCl 140 mM, pH=7.4 supplemented by Leupeptin 10 μg/mL, Phenyl Methyl Sulphonyl Fluoride (PMSF) 0.1 mM, Aprotinin 2 μg/mL and Pepstatin 2 μM (or a 1/50 dilution of a mix of protease inhibitors). The obtained suspension is stirred gently and submitted to a […] exerted through a syringe. The cell lysate is then centrifuged at 300 g 15 minutes at 4° C. in order to eliminate nucleus and cell scraps. The obtained supernatant is then centrifuged at 48000 g for 30 minutes at 4° C. The final pellet is resuspended in buffer I with a potter homogenizer. Aliquots are frozen in liquid nitrogen and stored until use at −80° C. Protein content is measured by the Bradford method.
Defreezed membranes are diluted at a final concentration of 5 μg/180 μL/well in buffer I supplemented by GDP 10 μM and distributed in 96 well polystyrene microplate. GTPγ [^35S] labelled ligand (0.2-0.3 nM) is added for additional 30 minutes. After transfer in a Millipore GF/C HTS® microplate, the filtration of the rectional mix is followed by a three times 250 μl wash to stop the reaction.
The filter-bound radioactivity is measured in a liquid scintillation counter Microbeta TRILUX® with 50 μl of scintillation fluid.
Results are expressed with IC50 and Ki values.

T1 sequence (Q9H3N8 whole entry): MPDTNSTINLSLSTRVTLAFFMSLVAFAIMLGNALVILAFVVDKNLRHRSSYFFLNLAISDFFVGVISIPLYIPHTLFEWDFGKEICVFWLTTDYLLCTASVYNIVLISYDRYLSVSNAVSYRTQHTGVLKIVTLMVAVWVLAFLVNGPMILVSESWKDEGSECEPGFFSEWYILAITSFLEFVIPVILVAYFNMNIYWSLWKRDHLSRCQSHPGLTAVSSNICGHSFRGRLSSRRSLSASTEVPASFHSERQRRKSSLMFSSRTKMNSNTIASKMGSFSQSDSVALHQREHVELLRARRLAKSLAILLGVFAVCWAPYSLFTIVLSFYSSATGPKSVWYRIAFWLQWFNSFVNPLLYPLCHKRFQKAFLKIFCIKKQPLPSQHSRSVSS

Cc1ccnc(C(OC2CCN(C)CC2)c2ccc(C)cc2F)c1.O=C(O)C(=O)O.O=C(O)C(=O)O (stereo not drawn) [Example 7, 2-[(2-Fluoro-4-methylphenyl)(1-methylpiperidin-4-yloxy)methyl]-4-methylpyridine, dioxalate]
Ki (human H4 receptor [1]): < 0.3 µM
IC50 (human H4 receptor [2]): < 0.3 µM
melting point: 52 °C

Cc1ccc(C(OC2CCN(C)CC2)c2ccc(F)cn2)c(F)c1.O=C(O)C(=O)O (stereo not drawn) [Example 10, 5-Fluoro-2-[(2-fluoro-4-methylphenyl)(1-methylpiperidin-4-yloxy)methyl]pyridine, oxalate]
Ki (human H4 receptor [1]): < 0.3 µM
IC50 (human H4 receptor [2]): < 0.3 µM
melting point: 133 °C

CN1CCC(OC(c2cccc(C#CCCCCN)c2)c2ccc(Cl)cn2)CC1.O=C(O)C(=O)O (stereo not drawn) [Example 18, 6-{3-[(5-Chloropyridin-2-yl)(1-methylpiperidin-4-yloxy)methyl]phenyl}hex-5-ynylamine, oxalate]
Ki (human H4 receptor [1]): < 0.03 µM
IC50 (human H4 receptor [2]): < 0.3 µM
melting point: 136 °C

CN1CCC(OC(c2ccc3ccccc3c2)c2cc(OC(F)(F)F)ccc2F)CC1.O=C(O)C(=O)O (stereo not drawn) [Example 28, 4-[(2-Fluoro-5-trifluoromethoxyphenyl)naphthalen-2-ylmethoxy]-1-methylpiperidine, oxalate]
Ki (human H4 receptor [1]): < 1 µM
IC50 (human H4 receptor [2]): < 0.3 µM
melting point: 105 °C

Cc1ccc(C(OC2CCN(C)CC2)c2ccc(Cl)c(Cl)c2)c(F)c1.O=C(O)C(=O)O (stereo not drawn) [Example 30, 4-[(3,4-Dichlorophenyl)(2-fluoro-4-methylphenyl)methoxy]-1-methylpiperidine, oxalate]
Ki (human H4 receptor [1]): < 0.3 µM
IC50 (human H4 receptor [2]): < 0.3 µM
melting point: 140 °C

CN1CCC(OC(c2ccc(Cl)c(Cl)c2)c2cc(OC(F)(F)F)ccc2F)CC1.O=C(O)C(=O)O (stereo not drawn) [Example 31, 4-[(3,4-Dichlorophenyl)(2-fluoro-5-trifluoromethoxyphenyl)methoxy]-1-methylpiperidine, oxalate]
Ki (human H4 receptor [1]): < 0.3 µM
IC50 (human H4 receptor [2]): < 0.3 µM
melting point: 115 °C

CN1CCC(OC(c2ccccc2F)c2cc(OC(F)(F)F)ccc2F)CC1.O=C(O)C(=O)O (stereo not drawn) [Example 32, 4-[(2-Fluorophenyl)-(2-fluoro-5-trifluoromethoxyphenyl)methoxy]-1-methylpiperidine, oxalate]
Ki (human H4 receptor [1]): < 1 µM
IC50 (human H4 receptor [2]): < 1 µM
melting point: 116 °C

CN1CCC(OC(c2ccc(Cl)cc2)c2cc(OC(F)(F)F)ccc2F)CC1.O=C(O)C(=O)O (stereo not drawn) [Example 33, 4-[(4-Chlorophenyl)(2-fluoro-5-trifluoromethoxyphenyl)methoxy]-1-methylpiperidine, oxalate]
Ki (human H4 receptor [1]): < 0.3 µM
IC50 (human H4 receptor [2]): < 0.3 µM
melting point: 117 °C

CN1CCC(OC(c2ccc(Cl)cc2)c2cccc(I)c2)CC1.O=C(O)C(=O)O (stereo not drawn) [Example 35, 4-[(4-Chlorophenyl)(3-iodophenyl)methoxy]-1-methylpiperidine, oxalate]
Ki (human H4 receptor [1]): < 0.03 µM
IC50 (human H4 receptor [2]): < 0.3 µM
melting point: 141 °C
